# Measurements: article PMC10817917, “Alkyl deoxyglycoside-polymyxin combinations against critical priority carbapenem-resistant gram-negative bacteria” (Scientific Reports, 2024)
# Several values for one entry are separate records, joined by “and”; a condition that tells them apart may be missing. Equal values may be shown once. Read-outs that look alike come from different tables or passages of the source.
# Tests used:
# [1] = system: E. coli ATCC 25922; assay: Broth microdilution MIC/MBC, glycosides with or without polymyxins; type: cell-based, Escherichia coli; conditions: for MIC: Escherichia coli, ATCC25922
# [2] = system: K. pneumoniae CQ4921; assay: as above; type: cell-based, Klebsiella pneumoniae; conditions: for MIC: Klebsiella pneumoniae, CQ4921
# [3] = system: E. cloacae CQ1941; assay: as above; type: cell-based; conditions: for MIC: Enterobacter cloacae, CQ1941
# [4] = system: K. pneumoniae CQ1947; assay: Broth microdilution MIC, glycosides with or without polymyxins; type: cell-based, Klebsiella pneumoniae; conditions: for MIC: Klebsiella pneumoniae, CQ1947
# [5] = system: Caco-2 cells; assay: Resazurin cell viability assay (cytotoxicity); type: cell-based, human; conditions: Homo sapiens, Caco-2, 72 h, read-out: IC50
# Method in brief: (§1)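 HEK-293T and Caco-2 cells (1.5 × 10^4/well, RPMI 1640 with 10% FBS) exposed 72 h at 37 °C to glycosides at final 100 to 10 µM, alone or with PMB or colistin at final 0.5, 0.25 or 0.125 µg/mL; max DMSO 0.33%. Resazurin added 4 h, read 570/600 nm; IC50 from dose-response fits, mean ± SD of three replicates.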
# [6] = system: HEK-293T cells; assay: Resazurin cell viability assay (cytotoxicity); type: cell-based, human; conditions: 72 h, read-out: IC50
# Method in brief: as §1
# [7] = alone, read-out: MICA (MIC of each compound individually)
# [8] = combination with the lowest FICI
# [9] = compound + colistin, lowest FICI
smiles,measurement,setting,value
"CCCCCCCCCCCC[C@H]1O[C@H](C)C[C@H](O)[C@H]1O [Compound 5, 1-(4,6-dideoxy-α-D-xylo-hexopyranosyl)dodecane]",MIC of colistin in combination with the compound,"[1]; Cpd conc. 0.4 μg/mL, strain A",> 0.5 µg/mL
same,MIC of colistin in combination with the compound,"[1]; Cpd conc. 0.8 μg/mL, strain A",> 0.5 µg/mL
same,MIC of colistin in combination with the compound,"[1]; Cpd conc. 3.125 μg/mL, strain A",0.25 µg/mL
same,MIC of colistin in combination with the compound,"[1]; Cpd conc. 6.25 μg/mL, strain A",0.125 µg/mL
same,MIC of colistin in combination with the compound,"[1]; Cpd conc. 12.5 μg/mL, strain A",≤ 0.06 µg/mL
same,MIC of colistin in combination with the compound,"[1]; Cpd conc. […], strain A",0.5 µg/mL
same,MIC,"[1]; agent alone, no adjuvant (polymyxin conc. 0), strain A, read-out: MIC",> 100 µg/mL
same,MIC,[1]; [7],> 100 µg/mL
same,MIC of compound in combination with PMB,"[1]; PMB 0.25 μg/mL, strain A",3.1 µg/mL
same,MIC of compound in combination with PMB,"[1]; PMB 0.5 μg/mL, strain A",3.1 µg/mL
same,MIC of compound in combination with colistin,"[1]; colistin 0.06 μg/mL, strain A",12.5 µg/mL
same,MBC of compound in combination with colistin,"[1]; colistin 0.125 μg/mL, strain A",6.3|6.3 μg/mL
same,MIC of compound in combination with colistin,"[1]; colistin 0.125 μg/mL, strain A",6.3 μg/mL and 6.3|6.3 μg/mL
same,MIC of compound in combination with colistin,"[1]; colistin 0.25 μg/mL, strain A",3.1 µg/mL
same,MIC of compound in combination with colistin,"[1]; colistin 0.5 μg/mL, strain A",1.6 µg/mL
same,MICA(A + B) (MIC of compound in combination with colistin),[1]; [8],12.5 µg/mL
same,MICB(A + B) (MIC of colistin in combination with compound),[1]; [8],0.06 µg/mL
same,Interpretation (of FICI),[1]; compound + colistin,Synergy (Values ≤ 0.5 were considered synergistic)
same,FICI,[1]; [9],0.18
same,MIC of colistin in combination with the compound,"[2]; Cpd conc. 0.4 μg/mL, strain C",0.5 µg/mL
same,MIC of colistin in combination with the compound,"[2]; Cpd conc. 0.8 μg/mL, strain C",0.5 µg/mL
same,MIC of colistin in combination with the compound,"[2]; Cpd conc. 3.125 μg/mL, strain C",0.125 µg/mL
same,MIC of colistin in combination with the compound,"[2]; Cpd conc. 6.25 μg/mL, strain C",0.125 µg/mL
same,MIC of colistin in combination with the compound,"[2]; Cpd conc. 12.5 μg/mL, strain C",0.125 µg/mL
same,MIC of colistin in combination with the compound,"[2]; Cpd conc. […], strain C",0.5 µg/mL
same,MIC,"[2]; agent alone, no adjuvant (polymyxin conc. 0), strain C, read-out: MIC",> 100 µg/mL
same,MIC,[2]; [7],> 100 µg/mL
same,MIC of compound in combination with PMB,"[2]; PMB 0.25 μg/mL, strain C",> 100 µg/mL
same,MIC of compound in combination with PMB,"[2]; PMB 0.5 μg/mL, strain C",1.6 µg/mL
same,MIC of compound in combination with colistin,"[2]; colistin 0.06 μg/mL, strain C",> 100 µg/mL
same,MBC of compound in combination with colistin,"[2]; colistin 0.125 μg/mL, strain C",6.3 µg/mL
same,MIC of compound in combination with colistin,"[2]; colistin 0.125 μg/mL, strain C",3.1 µg/mL
same,MIC of compound in combination with colistin,"[2]; colistin 0.5 μg/mL, strain C",≤ 0.1 µg/mL
same,MICA(A + B) (MIC of compound in combination with colistin),[2]; [8],3.125 µg/mL
same,MICB(A + B) (MIC of colistin in combination with compound),[2]; [8],0.125 µg/mL
same,Interpretation (of FICI),[2]; compound + colistin,Synergy (Values ≤ 0.5 were considered synergistic)
same,FICI,[2]; [9],0.27
same,MIC of colistin in combination with the compound,"[3]; Cpd conc. 0.4 μg/mL, strain D",0.5 µg/mL
same,MIC of colistin in combination with the compound,"[3]; Cpd conc. 0.8 μg/mL, strain D",0.5 µg/mL
same,MIC of colistin in combination with the compound,"[3]; Cpd conc. 3.125 μg/mL, strain D",0.125 µg/mL
same,MIC of colistin in combination with the compound,"[3]; Cpd conc. 6.25 μg/mL, strain D",0.125 µg/mL
same,MIC of colistin in combination with the compound,"[3]; Cpd conc. 12.5 μg/mL, strain D",0.125 µg/mL
same,MIC of colistin in combination with the compound,"[3]; Cpd conc. […], strain D",0.5 µg/mL
same,MIC,"[3]; agent alone, no adjuvant (polymyxin conc. 0), strain D, read-out: MIC",> 100 µg/mL
same,MIC,[3]; [7],> 100 µg/mL
same,MIC of compound in combination with PMB,"[3]; PMB 0.25 μg/mL, strain D",> 100 µg/mL
same,MIC of compound in combination with PMB,"[3]; PMB 0.5 μg/mL, strain D",1.6 µg/mL
same,MIC of compound in combination with colistin,"[3]; colistin 0.06 μg/mL, strain D",> 100 µg/mL
same,MBC of compound in combination with colistin,"[3]; colistin 0.125 μg/mL, strain D",6.3 µg/mL
same,MIC of compound in combination with colistin,"[3]; colistin 0.125 μg/mL, strain D",3.1 µg/mL
same,MIC of compound in combination with colistin,"[3]; colistin 0.25 μg/mL, strain D",3.1 µg/mL
same,MIC of compound in combination with colistin,"[3]; colistin 0.5 μg/mL, strain D",≤ 0.1 µg/mL
same,MICA(A + B) (MIC of compound in combination with colistin),[3]; [8],3.125 µg/mL
same,MICB(A + B) (MIC of colistin in combination with compound),[3]; [8],0.125 µg/mL
same,FICI,[3]; [9],0.27
same,MIC of colistin in combination with the compound,"[4]; Cpd conc. 0.4 μg/mL, strain F",0.5 µg/mL
same,MIC of colistin in combination with the compound,"[4]; Cpd conc. 0.8 μg/mL, strain F",0.5 µg/mL
same,MIC of colistin in combination with the compound,"[4]; Cpd conc. 3.125 μg/mL, strain F",0.25 µg/mL
same,MIC of colistin in combination with the compound,"[4]; Cpd conc. 6.25 μg/mL, strain F",0.25 µg/mL
same,MIC of colistin in combination with the compound,"[4]; Cpd conc. 12.5 μg/mL, strain F",0.25 µg/mL
same,MIC of colistin in combination with the compound,"[4]; Cpd conc. […], strain F",0.5 µg/mL
same,MIC,"[4]; agent alone, no adjuvant (polymyxin conc. 0), strain F, read-out: MIC",> 100 µg/mL
same,MIC,[4]; [7],> 100 µg/mL
same,MIC of compound in combination with PMB,"[4]; PMB 0.25 μg/mL, strain F",> 100 µg/mL
same,MIC of compound in combination with PMB,"[4]; PMB 0.5 μg/mL, strain F",3.1 µg/mL
same,MIC of compound in combination with colistin,"[4]; colistin 0.06 μg/mL, strain F",> 100 µg/mL
same,MIC of compound in combination with colistin,"[4]; colistin 0.125 μg/mL, strain F",> 100 µg/mL
same,MIC of compound in combination with colistin,"[4]; colistin 0.5 μg/mL, strain F",0.2 µg/mL
same,MICA(A + B) (MIC of compound in combination with colistin),[4]; [8],3.125 µg/mL
same,MICB(A + B) (MIC of colistin in combination with compound),[4]; [8],0.25 µg/mL
same,Interpretation (of FICI),[4]; compound + colistin,Additive (from 0.5 to 1.0 were additive)
same,FICI,[4]; [9],0.52
same,IC50,[5]; Colistin 0.25 μg/mL,64.9 ± 0.98 µM
same,IC50,[5]; Colistin 0.5 μg/mL,64.1 ± 1.09 µM
same,IC50,[5]; No polymyxin,62.4 ± 1.22 µM
same,IC50,[5]; PMB 0.25 μg/mL,61.1 ± 1.06 µM
same,IC50,[5]; tested alone (no polymyxin adjuvant),18.7 µg/mL
same,IC50,"[6]; Homo sapiens, HEK-293T, Colistin 0.125 μg/mL",79.7 ± 1.05 µM
same,IC50,"[6]; Homo sapiens, HEK-293T, Colistin 0.25 μg/mL",78.6 ± 3.28 µM
same,IC50,"[6]; Homo sapiens, HEK-293T, Colistin 0.5 μg/mL",80 ± 1.69 µM
same,IC50,"[6]; Homo sapiens, HEK-293T, No polymyxin",79.74 ± 0.53 µM
same,IC50,"[6]; Homo sapiens, HEK-293T, PMB 0.125 μg/mL",79.2 ± 2 µM
same,IC50,"[6]; Homo sapiens, HEK-293T, PMB 0.25 μg/mL",79.4 ± 1.58 µM
same,IC50,"[6]; Homo sapiens, HEK-293T, PMB 0.5 μg/mL",83.2 ± 0.96 µM
same,IC50,"[6]; Homo sapiens, HEK-293T, tested alone (no polymyxin adjuvant)",24 µg/mL
same,IC50,[6]; No polymyxin,79.7 µM
